In article PMC6328587 (Nature Communications, 2019):
Where two headings read alike, the source gives them in different places.

Columns and labels:
p38δ = biological target: T1, p38δ (Homo sapiens, UniProt O15264); assay: CETSA in MDA-MB-231 cell lysate, p38δ; format: binding; settings: 100 µM PROTAC, 51-55 °C, vs DMSO
T1 construct: endogenous in cells; host or cells: MDA-MB-231
T1 sequence (O15264 1-365): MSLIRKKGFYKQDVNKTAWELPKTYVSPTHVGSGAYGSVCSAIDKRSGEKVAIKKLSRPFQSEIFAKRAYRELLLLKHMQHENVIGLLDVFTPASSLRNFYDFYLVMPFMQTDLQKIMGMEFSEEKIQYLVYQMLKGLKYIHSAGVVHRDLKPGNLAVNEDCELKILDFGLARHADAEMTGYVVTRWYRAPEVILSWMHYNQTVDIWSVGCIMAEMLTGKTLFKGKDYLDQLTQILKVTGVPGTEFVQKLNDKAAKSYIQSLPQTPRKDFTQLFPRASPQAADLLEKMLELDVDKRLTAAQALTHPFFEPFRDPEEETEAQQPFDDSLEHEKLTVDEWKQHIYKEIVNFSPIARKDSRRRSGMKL
Method: CETSA protocol was adapted from[60]. In all, 3 × 10^7 MDA-MB-231 cells (1 × 10^7 cells per condition) were collected and resuspended in ice-cold 1X PBS supplemented with 1X protease inhibitor cocktail (Roche) and lysed by three cycles of liquid nitrogen snap freeze, followed by 50% thaw in a room temperature water bath and an additional 50% thaw at 4 °C. After each freeze–thaw cycle, lysate was vortexed briefly to ensure homogenous thawing. Lysate was then cleared for 20 min by centrifugation (14,000 × g at 4 °C) and the soluble fraction was divided into three equal aliquots. The aliquots were treated with vehicle (2.5% DMSO), 100 µM SJFα, or 100 µM SJFδ and incubated at room temperature for 30 min with gentle rotation. Each aliquot was then divided (50 µL) into eight PCR tubes and individually heated at the indicated temperature for 3 min followed by cooling at room temperature for 3 min. After cooling, samples were spun down for 20 min (14,000 × g at 4 °C) and the supernatant (soluble fraction) was analyzed by SDS-PAGE and immunoblotted for p38δ and alpha-tubulin (negative control).

[1] = biological target: T2, p38δ:PROTAC:VHL ternary complex (Homo sapiens, UniProt O15264+P40337); assay: In vitro ternary complex pull-down, GST-VBC bait, purified p38δ; format: binding; settings: dose-dependent
T2 construct: encoding a region spanning amino acids 1–365; His6 (N); made in house; host or cells: E. coli BL21-CodonPlus(DE3)-RIPL (p38δ); E. coli BL21(DE3) (GST-VBC)
Method: Glutathione Sepharose 4B (Glutathione-conjugated beads in a slurry containing 20% ethanol) were washed twice with 1X wash buffer (50 mM HEPES pH 7.5, 150 mM NaCl, 1 mM DTT, 0.01% NP40, 5 mM MgCl2, 10% Glycerol) and then blocked for 1 h at room temperature with 10% bovine serum albumin (BSA) in wash buffer. The beads were then washed again three times with wash buffer and then purified GST-VBC (stable form of VHL complexed with EloB/EloC, described above) was immobilized for 1 h at 4 °C at 3.6 pmole µL^–1 of beads. The beads were then washed three times with wash buffer, resuspended, divided into two equal volumes, and p38α or p38δ protein was added. The bead:p38 mixture was then aliquoted to separate tubes and PROTAC was added at the indicated concentration (PROTACs were intermediately diluted in 10% DMSO and 0.25% CHAPS). This mixture was incubated at 4 °C for 2 h. The beads were washed three times with 10 column volumes of wash buffer and then eluted with SDS loading buffer at 75 °C for 10 min.

ERK2 = biological target: T3, ERK2 (Homo sapiens, UniProt P28482); assay: ERK2 degradation, western blot in MDA-MB-231 cells; format: cell-based; settings: 0.025-2.5 µM
T3 construct: endogenous in cells; host or cells: MDA-MB-231
Method: (§1) […] once with ice-cold PBS (1 × ), followed by lysis in buffer containing 25 mM Tris [pH 7.5], 0.25% sodium deoxycholate, 1% Triton X-100, supplemented with 1X protease inhibitor cocktail (Roche), and phosphatase inhibitors (10 mM NaF, 1 mM Na3VO4, and 20 mM β-glycerophosphate), unless otherwise noted. Lysates were spun at 14,000 × g for 10 min at 4 °C and supernatant was evaluated for protein content using a Pierce BCA Protein Assay (ThermoFisher Scientific). In all experiments, 25–50 μg of protein was loaded onto 10% SDS-PAGE gels or 4–20% Criterion TGX precast gradient gels (Bio-Rad), transferred to nitrocellulose membranes, and probed with the specified antibodies overnight at 4 °C in 1X TBS-Tween (Tris-buffered saline plus 0.02% Tween 20) containing 5% non-fat milk. Immunoblots were visualized using a Bio-Rad ChemiDoc imaging instrument and subsequently processed and quantified using the accompanying Bio-Rad ImageLab software. See Supplementary Figure 8 for uncropped scans of western blots shown in the main text figures.
Supplementary Figure 4 cont.
Supplementary Figure 4. Characterization of M APK fam ily degradation selectivity (related to Figures 1-2). (a) p38 M APK fam ily m em bers (α, β, δ, γ) were aligned using the T-Coffee multiple sequence alignm ent server. […] Note: JNK1 and JNK2 are expressed as two alternatively-spliced form s. […]

p38α = biological target: T4, p38α (Homo sapiens, UniProt Q16539); assay: PROTAC-induced p38α degradation, western blot in MDA-MB-231 cells; format: cell-based
T4 construct: SJFα PROTAC (13-atom linker, amide attachment) selectively degrades p38α; endogenous in cells; host or cells: MDA-MB-231
Method: MDA-MB-231 and HeLa cells were obtained from the American Type Culture Collection (ATCC), cultured in RPMI-1640 medium (1 × ) and Dulbecco’s modified Eagle’s medium (DMEM; 1 × ), respectively, containing 10% fetal bovine serum and 1% penicillin–streptomycin and grown in a humidified incubator at 37 °C and 5% CO2.
as §1
Western blot data in Figs. 2, 6, and Supplementary Figures 2, 3 were quantified by using the band feature in Image Lab (Bio-Rad). The p38 values were normalized to the α-tubulin signal to account for differences in protein load, and PROTAC-treated normalized values were expressed as a % of the vehicle-treated (no PROTAC) value, which itself was defined as 100% p38 protein level. […] The sigmoidal fit established both the full extent of degradation, or Dmax at the bottom asymptote of the curve, as well as the DC50, which is the inflection point at which 50% of the total degradation observed was reached.

[2] = 0.025-5.0 µM survey, biological duplicates, ± one s.d., Supplementary Table 1
[3] = 0.025-5.0 µM survey, ± one s.d., Supplementary Table 1, read-out: Dmax p38α (maximum percentage of degradation)

T4 sequence (Q16539 whole entry): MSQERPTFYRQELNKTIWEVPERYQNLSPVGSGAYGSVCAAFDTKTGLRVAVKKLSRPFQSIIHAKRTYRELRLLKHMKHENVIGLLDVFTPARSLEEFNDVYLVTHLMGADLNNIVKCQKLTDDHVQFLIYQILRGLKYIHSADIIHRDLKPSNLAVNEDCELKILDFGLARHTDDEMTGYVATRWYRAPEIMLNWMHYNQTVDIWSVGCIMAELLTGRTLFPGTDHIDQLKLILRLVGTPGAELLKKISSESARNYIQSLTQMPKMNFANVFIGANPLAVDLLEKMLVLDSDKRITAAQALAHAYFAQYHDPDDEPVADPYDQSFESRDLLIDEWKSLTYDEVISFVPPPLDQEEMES
T3 sequence (P28482 whole entry): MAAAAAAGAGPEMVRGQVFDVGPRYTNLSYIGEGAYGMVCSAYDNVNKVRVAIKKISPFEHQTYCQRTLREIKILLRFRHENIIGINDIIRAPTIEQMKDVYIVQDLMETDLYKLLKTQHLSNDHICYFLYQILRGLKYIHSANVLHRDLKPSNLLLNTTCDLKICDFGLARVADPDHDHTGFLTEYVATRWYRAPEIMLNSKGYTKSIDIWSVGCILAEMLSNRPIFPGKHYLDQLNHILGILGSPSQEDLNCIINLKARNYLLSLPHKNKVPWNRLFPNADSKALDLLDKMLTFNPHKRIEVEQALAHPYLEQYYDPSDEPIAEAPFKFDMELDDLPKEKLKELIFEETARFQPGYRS
T2 sequence (P40337 whole entry, one chain of several, the tested form may be a part): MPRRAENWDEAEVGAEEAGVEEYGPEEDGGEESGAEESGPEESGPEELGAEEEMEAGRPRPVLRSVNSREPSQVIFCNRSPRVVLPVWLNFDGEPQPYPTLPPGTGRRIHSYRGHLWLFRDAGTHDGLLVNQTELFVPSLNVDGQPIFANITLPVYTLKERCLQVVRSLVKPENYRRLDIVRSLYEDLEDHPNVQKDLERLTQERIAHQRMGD
T2 sequence (Q15370 whole entry partner, one chain of several, the tested form may be a part): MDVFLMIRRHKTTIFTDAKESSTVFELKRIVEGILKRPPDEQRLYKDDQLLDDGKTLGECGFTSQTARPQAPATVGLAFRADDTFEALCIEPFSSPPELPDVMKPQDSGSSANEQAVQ
T2 sequence (Q15369 whole entry partner, one chain of several, the tested form may be a part): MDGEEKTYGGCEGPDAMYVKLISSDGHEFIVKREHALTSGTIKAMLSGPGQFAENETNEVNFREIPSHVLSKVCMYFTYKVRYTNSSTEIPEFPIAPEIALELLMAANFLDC

COc1cc2c(Oc3ccc(NC(=O)C4(C(=O)Nc5ccc(F)cc5)CC4)cc3F)ccnc2cc1OCCCCOCCCCOCC(=O)N[C@H](C(=O)N1C[C@H](O)C[C@H]1C(=O)NCc1ccc(-c2scnc2C)cc1)C(C)(C)C [SJFα]
thermal shift in the p38δ melting profile (p38δ): small, but statistically significant
pull-down of purified p38δ on GST-VBC-coated beads [1]: can pull-down purified p38δ
ERK2 degradation (ERK2): neither PROTAC degrades
p38α downregulation after pre-treatment with 1 µM epoxomicin or 1 µM MLN4924 (p38α; 250 nM PROTAC, 6 h): completely rescued
DC50 (p38α; [2]): 9.5 ± 1 nM
Dmax (p38α; [3]): 99.6 ± 1.1%
hook effect in p38α degradation (p38α; up to 100 µM): no hook effect
DC50 (p38α; wider dose response 1 nM-100 µM, Supplementary Figure 3): 7.16 ± 1.03 nM
Dmax (p38α; wider dose response 1 nM-100 µM, Supplementary Figure 3, read-out: Dmax p38α): 97.4%

COc1cc2c(Oc3ccc(NC(=O)C4(C(=O)Nc5ccc(F)cc5)CC4)cc3F)ccnc2cc1OCCOCCOCCOc1cc(-c2scnc2C)ccc1CNC(=O)[C@@H]1C[C@@H](O)CN1C(=O)[C@H](C(C)C)N1Cc2ccccc2C1=O [SJFδ]
thermal shift in the p38δ melting profile (p38δ): more pronounced at each melting temperature
pull-down of purified p38δ on GST-VBC-coated beads [1]: can pull-down purified p38δ
ERK2 degradation (ERK2): neither PROTAC degrades
p38α degradation (in words) (p38α): does not degrade
DC50 (p38α; [2]): 45.9 ± 81.3 nM
Dmax (p38α; [3]): 34.5 ± 10.1%
